US6296785A, “Indeno-fused photochromic naphthopyrans” (PPG Industries Ohio, Inc., priority 2000, dated 2001)

Columns and labels:
Type in all cases: physicochemical
[1] = Relative ΔOD at Saturation Test; details: ΔOD at saturation (Band A)/ΔOD at saturation (Band B)×100
Source text: In accordance with the present invention, it has now been discovered that certain novel indeno[2,1-f]naphtho[1,2-b]pyrans having two absorption bands in the activated (colored) state, an acceptable fade rate, high activated intensity, a high coloration rate and a rating of 80 or higher in the Relative ΔOD at Saturation Test may be prepared. The Relative ΔOD at Saturation Test is described in Example 21. The ratings of the test are defined herein as the result obtained when the optical density of band "A" is divided by the optical density of band "B" and multiplied by 100. It is believed that compounds having a rating of 80 or higher are most valuable for formulating neutral grays, greens and browns for commercial photochromic ophthalmic eyeware.
(§1) Testing was done with the photochromic compounds described in Examples 1 through 20 and Comparative Examples 1 through 3 in the following manner. A quantity of photochromic compound calculated to yield a 1.5×10^-3 molal solution was added to a flask containing 50 grams of a monomer blend of 4 parts ethoxylated bisphenol A dimethacrylate (BPA 2EO DMA), 1 part poly(ethylene glycol) 600 dimethacrylate, and 0.033 weight percent 2,2'-azobis(2-methyl propionitrile) (AIBN). The photochromic compound was dissolved into the monomer blend by stirring and gentle heating, if necessary. After a clear solution was obtained, it was poured into a flat sheet mold having the interior dimensions of 2.2 mm×6 inches (15.24 cm)×6 inches (15.24 cm). The mold was sealed and placed in a horizontal air flow, programmable oven programmed to increase the temperature from 40° C. to 95° C. over a 5 hour interval, hold the temperature at 95° C. for 3 hours, lower it to 60° C. over a 2 hour interval and then hold it at 60° C. for 16 hours. After the mold was opened, the polymer sheet was cut using a diamond blade saw into 2 inch (5.1 centimeters) test squares.
(§2) The photochromic test squares of Part A were tested for photochromic response rates on an optical bench. Prior to testing on the optical bench, the photochromic test squares were exposed to 365 nanometer ultraviolet light for about 15 minutes to activate the photochromic compounds and then placed into a 76° C. oven for about 15 minutes to bleach the photochromic compounds. The test squares were then cooled to room temperature, exposed to fluorescent room lighting for at least 2 hours and then kept covered for at least 2 hours prior to testing on an optical bench maintained at 72° F. (22.2° C.). The bench was fitted with a 250 watt Xenon arc lamp, a remote controlled shutter, a copper sulfate bath acting as a heat sink for the arc lamp, a Schott WG-320 nm cut-off filter which removes short wavelength radiation; neutral density filter(s) and a sample holder in which the square to be tested was inserted. The power output of the optical bench, i.e., the dosage of light that the sample lens would be exposed to, was calibrated with a photochromic test square used as a reference standard. […] The UV-A detector was placed into the sample holder and the light output was measured. Adjustments to the power output were made by increasing or decreasing the lamp wattage or by adding or removing neutral density filters in the light path.
Change in optical density (ΔOD) was determined by inserting a test square in the bleached state into the sample holder, adjusting the transmittance scale to 100%, opening the shutter from the Xenon lamp to provide ultraviolet radiation to change the test square from the bleached state to an activated (i.e., darkened) state, measuring the transmittance in the activated state, and calculating the change in optical density according to the formula: ΔOD=log(100/% Ta), where % Ta is the percent transmittance in the activated state and the logarithm is to the base 10. […]

[2] = photochromic response of test squares on an optical bench (sensitivity, saturation optical density, bleach rate); details: for ΔOD @ Saturation (Band A) / ΔOD @ Saturation (Band B): UV exposure 15 minutes; for ΔOD @ Saturation (Band A) / Sensitivity ΔOD/MIN (Band A) / ΔOD @ Saturation (Band B) / Sensitivity ΔOD/MIN (Band B): 72° F. (22.2° C.), polymer test square; for Sensitivity ΔOD/MIN (Band A) / Sensitivity ΔOD/MIN (Band B): first five (5) seconds of UV exposure, expressed per minute; for Bleach Rate T 1/2: measured at band B, room temperature (72° F., 22.2° C.) after removal of activating light
Description: as §1, §2
A monitoring, collimated beam of light from a tungsten lamp was passed through the square at a small angle (approximately 30°) normal to the square. After passing through the square, the light from the tungsten lamp was directed to a detector through Spectral Energy Corp. GM-200 monochromator set at the previously determined visible lambda max of the photochromic compound being measured. The output signals from the detector were processed by a radiometer.
Change in optical density (ΔOD) was determined by inserting a test square in the bleached state into the sample holder, adjusting the transmittance scale to 100%, opening the shutter from the Xenon lamp to provide ultraviolet radiation to change the test square from the bleached state to an activated (i.e., darkened) state, measuring the transmittance in the activated state, and calculating the change in optical density according to the formula: ΔOD=log(100/% Ta), where % Ta is the percent transmittance in the activated state and the logarithm is to the base 10.
The ΔOD/Min, which represents the sensitivity of the photochromic compound's response to UV light, was measured over the first five (5) seconds of UV exposure, then expressed on a per minute basis. The saturation optical density (ΔOD@ Saturation) was taken under identical conditions as the ΔOD/Min, except UV exposure was continued for 15 minutes. […]

[3] = lambda max (Vis) of activated photochromic test squares in a Varian Cary 3 uv-visible spectrophotometer; details: activated form in test square
Description: as §1
The lambda max (Vis) is the wavelength in the visible spectrum at which the maximum absorption of the activated (colored) form of the photochromic compound in a test square occurs. The lambda max (Vis) wavelengths reported in Table 1 were determined by testing the photochromic test square polymerizates of Part A in a Varian Cary 3 uv-visible spectrophotometer. The bleach rate (T 1/2) is the time interval in seconds for the absorbance of the activated form of the photochromic compound in the test squares to read one half the highest absorbance at room temperature (72° F., 22.2° C.) after removal of the source of activating light.
For each lambda max visible, the corresponding optical density (Δ OD/Min and Δ OD at saturation) for the desired compounds of the Examples and Comparative Examples are tabulated in Table 1 for the two bands (A and B) of peak absorption for each compound. Table 1 also includes the bleach rate (T 1/2) for each of the compounds as measured at band B. The ratings of the Relative Δ OD at Saturation Test for the bands A and B of each of the Examples and Comparative Examples are calculated as follows: Δ OD at saturation (Band A)/Δ OD at saturation (Band B)×100.

Relative ΔOD at Saturation (rating) [1]	ΔOD @ Saturation (Band A) [2]	Sensitivity ΔOD/MIN (Band A) [2]	ΔOD @ Saturation (Band B) [2]	Sensitivity ΔOD/MIN (Band B) [2]	Bleach Rate T 1/2 [2] [min]	λ MAX Vis (Band A) [3] [nm]	λ MAX Vis (Band B) [3] [nm]	SMILES
104	0.25	0.21 ΔOD/MIN	0.24	0.18 ΔOD/MIN	1.4	480	603	CCC1(O)c2ccccc2-c2c1c1c(c3cc(OC)c(OC)cc23)OC(c2ccc(OC)cc2)(c2ccc(N3CCOCC3)cc2)C=C1 (centres unmarked) [Example 17, 6,7-dimethoxy-3-(4-methoxyphenyl)-3-(4-morpholinophenyl)-13-hydroxy-13-ethyl-3H,13H-indeno[2,1-f]naphtho[1,2-b]pyran]
100	0.27	0.21 ΔOD/MIN	0.27	0.18 ΔOD/MIN	1.43	483	604	CCC1(OC)c2ccccc2-c2c1c1c(c3cc(OC)c(OC)cc23)OC(c2ccc(OC)cc2)(c2ccc(N3CCOCC3)cc2)C=C1 (centres unmarked) [Example 18, 3-(4-methoxyphenyl)-3-(4-morpholinophenyl)-6,7-dimethoxy-13-ethyl-13-methoxy-3H,13H-indeno[2,1-f]naphtho[1,2-b]pyran]
97	0.34	0.18 ΔOD/MIN	0.35	0.22 ΔOD/MIN	1.63	481	603	COc1ccc(C2(c3ccc(N4CCOCC4)cc3)C=Cc3c4c(c5cc(OC)c(OC)cc5c3O2)-c2ccccc2C4(C)O)cc1 (centres unmarked) [Example 19, 3-(4-methoxyphenyl)-3-(4-morpholinophenyl)-6,7-dimethoxy-13-hydroxy-13-methyl-3H,13H-indeno[2,1-f]naphtho[1,2-b]pyran]
92	0.34	0.16 ΔOD/MIN	0.37	0.17 ΔOD/MIN	1.75	483	604	COc1ccc(C2(c3ccc(N4CCOCC4)cc3)C=Cc3c4c(c5cc(OC)c(OC)cc5c3O2)-c2ccccc2C4(C)OC)cc1 (centres unmarked) [Example 20, 3-(4-methoxyphenyl)-3-(4-morpholinophenyl)-6,7-dimethoxy-13-methoxy-13-methyl-3H,13H-indeno[2,1-f]naphtho[1,2-b]pyran]
